pIC50: −log10 of the molar value. Read-outs that look alike come from different tables or passages of the source.
Experiments:
[1] = system: adhesion of Ramos cells to VCAM-1; test: Adhesion of Ramos cells to immobilized VCAM-1 (domains 1-3); assay type: cell-based; settings: Homo sapiens
From the text: In Vitro Assay: Adhesion of Ramos Cells to Immobilized VCAM-1 (Domains 1-3) Preparation of VCAM-1 (Extracellular Domains 1-3)
Complementary DNA (cDNA) encoding 7-domain form of VCAM-1 (GenBank accession #M60335) was obtained using Rapid-Screen™ cDNA library panels (OriGene Technologies, Inc) at Takara Gene Analysis Center (Shiga, Japan). The primers used were 5′-CCAAGGCAGAGTACGCAAAC-3′ (sense) and 5′-TGGCAGGTATTATTAAGGAG-3′ (antisense). PCR amplification of the 3-domain VCAM-1 cDNA was perform using Pfu DNA polymerase (Stratagene) with the following sets of primers: (U-VCAMd1-3) 5′-CCATATGGTACCTGATCAATTTAAAATCGAGACCACCCCAGAA-3′; (L-VCAMdl-3) 5-CCATATAGCAATCCTAGGTCCAGGGGAGATCTCAACAGTAAA-3′. PCR cycle was 94° C. for 45 sec, 55° C. for 45 sec, 72° C. for 2 min, repeating 15 cycles. After the purification of the PCR product, the fragment was digested with KpnI-AvrII. The digested fragment was ligated into pBluescript IISK(−) (Strategene), which was linearized by digesting with KpnI-XhoI. The ligation was followed by transformation to a Dam/Dcm methylase-free E. coli strain SCS110 (Strategene) to create the donor plasmid […]. To direct VCAM-1 molecule into the insect cell secretory pathway, the VCAM-1 coding sequence was fused to signal peptide sequence of honeybee melittin. The resulting melittin-VCAM fusion was placed in correct orientation to the baculovirus polyhedrin promoter. Baculovirus transfer vector containing first 3-domain form VCAM-1 (pH10) was constructed by ligation of 0.9 kb fragment from AvrII/Klenow/BclI digests of pH7 into SalI/Klenow/BamHI digests of pMelBacB (Invitrogen). Recombinant baculovirus was generated by using Bac-N-Blue™ Transfection kit (Invitrogen) according to the manufacture's instruction. The recombinant virus was amplified by infection to High-Five™ insect cells for 5-6 days, and virus titer was determined by plaque assay.
High-Five™ insect cells were pelleted in a 225 ml conical tube by centrifugation at 1000 rpm for 5 min. After discarding the supernatant, the pellet was resuspended in 1.5×10^9 pfu (MOI=5) of high-titer virus solution, followed by incubation for 1.5 hours at room temperature. The cells were pelleted again and washed once in fresh Express Five™ serum free medium. The cells were pelleted again and finally, resuspended in 200 ml of fresh Express Five TM medium, transferred to a 1,000 ml shaker flask, and incubated in a shaker at 27° C., 130 rpm, for 48 hours before the culture supernatant was collected. The purification of 3-domain form of VCAM-1 from the culture supernatant was performed by one-step anion exchange chromatography. Protein concentration was determined by using Coomassie protein assay reagent (Pierce) according to the manufacture's instruction.
Preparation of VCAM-1 Coated Microtiter Plates
Recombinant human VCAM-1 (extracellular domains 1-3) was dissolved at 1.0 μg/ml in PBS. Each well of the microtiter plates (Nalge Nunc International, Fluoronunc Cert, 437958) was coated with 100 μl of substrate or for background control with buffer alone for 15 hours at 4 C. After discarding the substrate solution, the wells were blocked using 150 μl per well of block solution (Kirkegaard Perry Laboratories, 50-61-01) for 90 minutes. The plate was washed with wash buffer containing 24 mM Tris-HCl (pH 7.4), 137 mM NaCl, […] and 2 mM MnCl2 just before addition of the assay.
In Vitro Assay using Ramos Cells
Preparation of Fluorescence Labeled Ramos Cells:
Ramos cells (American Type Culture Collection, Clone CRL-1596) were cultured in RPMI 1640 medium (Nikken Bio Medical Laboratory, CM1101) supplemented with 10% fetal bovine serum (Hyclone, A-1119-L), 100 U/ml penicilin (Gibco BRL, 15140-122) and 100 μg/ml streptomycin (Gibco BRL, 15140-122) in a humidified incubator at 37° C. with 5% CO2. […]

[2] = observed IC50 value ranges, Table 4 does not say whether Ramos-VCAM-1 or Jurkat-VCAM-1, read-out: IC50

Cc1ccccc1NC(=O)Nc1ccc(CC(=O)NC(CC(C)C)C(=O)Nc2ccc(C(=O)O)cc2)cc1 (stereo not shown) [Example 37]
melting point: 219 to 223 °C | pIC50 ([1]; Ramos): > 6.30

COCCCN(CC(=O)Nc1ccc(C(=O)O)cc1)C(=O)Cc1ccc(NC(=O)Nc2ccccc2C)cc1 [Example 38]
melting point: 210 to 218 °C | pIC50 ([1]; Ramos): > 6.30

Cc1ccccc1NC(=O)Nc1ccc(CC(=O)NCC(=O)Nc2ccc(C(=O)O)cc2)cc1 [Example 39, 4-[(N-{[4-({[(2-methylphenyl)amino]carbonyl}amino)phenyl]acetyl}glycyl)amino]benzoic acid]
melting point: 268 to 271 °C | pIC50 ([1]; Ramos): > 6.30

Cc1ccccc1NC(=O)Nc1ccc(CC(=O)NC2CCCN(c3ccc(C(=O)O)cc3)C2)cc1 (stereo not shown) [Example 49, 4-[3-({[4-({[(2-methylphenyl)amino]carbonyl}amino)phenyl]acetyl}amino)-1-piperidinyl]benzoic acid]
melting point: 236 to 238 °C | pIC50 ([1]; Ramos): > 6.30

Cc1ccccc1NC(=O)Nc1ccc(CC(=O)NC2CCN(c3ccc(C(=O)O)cc3)C2)cc1 (stereo not shown) [Example 50, 4-[3-({[4-({[(2-methylphenyl)amino]carbonyl}amino)phenyl]acetyl}amino)-1-pyrrolidinyl]benzoic acid]
melting point: 239 to 242 °C | pIC50 ([1]; Ramos): > 6.30

Cc1ccccc1NC(=O)Nc1ccc(CC(=O)NCC(=O)N(CC(C)C)c2ccc(C(=O)O)cc2)cc1 [Example 51, 4-[isobutyl(N-{[4-({[(2-methylphenyl)amino]carbonyl}amino)phenyl]acetyl}glycyl)amino]benzoic acid]
melting point: 131 to 132 °C | pIC50 ([1]; Ramos): < 5.00

COCCCN(CC(=O)N(CC(C)C)c1ccc(C(=O)O)cc1)C(=O)Cc1ccc(NC(=O)Nc2ccccc2C)cc1 [Example 52, 4-[isobutyl(N-(3-methoxypropyl)-V-{[4-({[(2-methylphenyl)amino]carbonyl}amino)phenyl]acetyl}glycyl)amino]benzoic acid]
melting point: 76 to 76.5 °C | pIC50 ([1]; Ramos): < 5.00

COCCCN(CC(=O)N(C)c1ccc(C(=O)O)cc1)C(=O)Cc1ccc(NC(=O)Nc2ccccc2C)cc1 [Example 53, 4-[(N-(3-methoxypropyl)-N-{[4-({[(2-methylphenyl)amino]carbonyl}amino)phenyl]acetyl}glycyl)(methyl)amino]benzoic acid]
melting point: 63 to 64 °C | pIC50 ([1]; Ramos): 5.70 to 6.30

Cc1ccccc1NC(=O)Nc1ccc(CC(=O)N[C@@H](CCCCN)C(=O)Nc2ccc(C(=O)O)cc2)cc1.O=C(O)C(F)(F)F [Example 53a]
melting point: 168 to 169 °C | pIC50 [1, 2]: > 6.30

Cc1ccccc1NC(=O)Nc1ccc(CC(=O)N[C@H](CCCCN)C(=O)Nc2ccc(C(=O)O)cc2)cc1.O=C(O)C(F)(F)F [Example 54, 4-[(N^2-{[4-({[(2-methylphenyl)amino]carbonyl}amino)phenyl]acetyl}-D-lysyl)amino]benzoic acid trifluoroacetate]
melting point: 73 to 75 °C | pIC50 [1, 2]: > 6.30

Cc1ccccc1NC(=O)Nc1ccc(CC(=O)N(CC(=O)Nc2ccc(C(=O)O)cc2)Cc2ccncc2)cc1 [Example 71, 4-{[N-{[4-({[(2-methylphenyl)amino]carbonyl}amino)phenyl]acetyl}-N-(4-yridinylmethyl)glycyl]amino}benzoic acid]
pIC50 ([1]; Ramos): > 6.30

Cc1ccccc1NC(=O)Nc1ccc(CC(=O)N(CCc2c[nH]cn2)CC(=O)Nc2ccc(C(=O)O)cc2)cc1 [Example 72, 4-[(N-[2-(1H-imidazol-4-yl)ethyl]-N-{[4-({[(2-methylphenyl)amino]carbonyl}amino)phenyl]acetyl}glycyl)amino]benzoic acid]
pIC50 ([1]; Ramos): > 6.30

Cc1ccccc1NC(=O)Nc1ccc(CC(=O)N(CCc2ccccn2)CC(=O)Nc2ccc(C(=O)O)cc2)cc1 [Example 73, 4-({N-{[4-({[(2-methylphenyl)amino]carbonyl}amino)phenyl]acetyl}-N-[2-(2-pyridinyl)ethyl]glycyl}amino)benzoic acid]
pIC50 ([1]; Ramos): > 6.30

O=C(Cc1ccc2nc(Nc3ccccc3)oc2c1)NCC(=O)Nc1ccc(C(=O)O)cc1 [Example 74, 4-({N-[(2-anilino-1,3-benzoxazol-6-yl)acetyl]glycyl}amino)benzoic acid]
melting point: > 280 °C | pIC50 ([1]; Ramos): > 6.30

O=C(CN(CCc1ccccc1)C(=O)Cc1ccc2nc(Nc3ccccc3)oc2c1)Nc1ccc(C(=O)O)cc1 [Example 75, 4-{[N-[(2-anilino-1,3-benzoxazol-6-yl)acetyl]-N-(2-phenylethyl)glycyl]-amino}benzoic acid]
melting point: 160 to 162 °C | pIC50 ([1]; Ramos): > 6.30

COc1cc(CCN(CC(=O)Nc2ccc(C(=O)O)cc2)C(=O)Cc2ccc3nc(Nc4ccccc4)oc3c2)cc(OC)c1 [Example 77, 4-({N-[(2-anilino-1,3-benzoxazol-6-yl)acetyl]-N-[2-(3,5-dimethoxyphenyl)-ethyl]glycyl}amino)benzoic acid]
pIC50 ([1]; Ramos): > 6.30

O=C(CN(CCCN1CCCC1)C(=O)Cc1ccc2nc(Nc3ccccc3)oc2c1)Nc1ccc(C(=O)O)cc1 [Example 84]
pIC50 ([1]; Ramos): 5.70 to 6.30

COc1cccc(CCN(CC(=O)Nc2ccc(C(=O)O)cc2)C(=O)Cc2ccc(NC(=O)Nc3ccccc3C)cc2)c1 [Example 85, 4-[(N-[2-(3-methoxyphenyl)ethyl]-N-{[4-({[(2-methylphenyl)amino]-carbonyl}amino)phenyl]acetyl}glycyl)amino]benzoic acid]
pIC50 ([1]; Ramos): > 6.30

Cc1ccccc1NC(=O)Nc1ccc(CC(=O)N(CC(=O)Nc2ccc(C(=O)O)cc2)Cc2ccccc2)cc1 [Example 86, 4-[(N-benzyl-N-{[4-({[(2-methylphenyl)amino]carbonyl}amino)phenyl]-acetyl}glycyl)amino]benzoic acid]
pIC50 ([1]; Ramos): > 6.30

COc1cccc(CCN(CC(=O)Nc2ccc(C(=O)O)cc2)C(=O)Cc2ccc3nc(Nc4ccccc4)oc3c2)c1 [Example 87, 4-({N-[(2-anilino-1,3-benzoxazol-6-yl)acetyl]-N-[2-(3-methoxyphenyl)ethyl]-glycyl}amino)benzoic acid]
pIC50 ([1]; Ramos): > 6.30

Cc1ccccc1NC(=O)Nc1ccc(CC(=O)N[C@@H](Cc2ccccc2)C(=O)Nc2ccc(C(=O)O)cc2)cc1 [Example 88, 4-[(N-{[4-({[(2-methylphenyl)amino]carbonyl}amino)phenyl]acetyl}-L-phenylalanyl)amino]benzoic acid]
pIC50 ([1]; Ramos): > 6.30

O=C(Cc1ccc2nc(Nc3ccccc3)oc2c1)N[C@@H](Cc1ccccc1)C(=O)Nc1ccc(C(=O)O)cc1 [Example 89, 4-({N-[(2-anilino-1,3-benzoxazol-6-yl)acetyl]-L-phenylalanyl}amino)benzoic acid]
pIC50 ([1]; Ramos): > 6.30

Cc1ccccc1NC(=O)Nc1ccc(CC(=O)N[C@@H](Cc2ccc(Br)cc2)C(=O)Nc2ccc(C(=O)O)cc2)cc1 [Example 90, 4-[(4-bromo-N-{[4-({[(2-methylphenyl)amino]carbonyl}amino)phenyl]-acetyl}-L-phenylalanyl)amino]benzoic acid]
pIC50 ([1]; Ramos): > 6.30

O=C(Cc1ccc2nc(Nc3ccccc3)oc2c1)N[C@@H](Cc1ccc(Br)cc1)C(=O)Nc1ccc(C(=O)O)cc1 [Example 91]
pIC50 ([1]; Ramos): 5.70 to 6.30

O=C(CN(Cc1ccccc1)C(=O)Cc1ccc2nc(Nc3ccccc3)oc2c1)Nc1ccc(C(=O)O)cc1 [Example 92]
pIC50 ([1]; Ramos): 5.70 to 6.30
